Test results from patent US20220305090A1, “HAIR GROWING AGENT AND FOOD OR BEVERAGE PRODUCT COMPRISING SAME” (NITTA GELATIN INC., priority 2019, published 2022).

What was measured:
[1] = test system: human normal hair papilla cells HFDPC-C; assay: Cell growth test on hair papilla cells (neutral red method, living cell number vs purified water control); assay type: cell-based; conditions: for Hair papilla cell growth promoting action (in words): conclusion from Tables 1, 2 and 4; for Growth rate control = 100: 72 hours culture
Description: First, human normal hair papilla cells HFDPC-C (manufactured by Takara Bio Inc.) were obtained, and the hair papilla cells were then seeded at 0.2×10^4/dish in each well of a 96-well plate for cell culture (manufactured by Corning Inc.). Further, 200 μL of a basal medium (trade name: “Follicle Dermal Papilla Cell Basal Medium”, manufactured by Takara Bio Inc.) containing a growth factor accompanying the obtained hair papilla cells was supplied to each well, and the hair papilla cells were precultured in each well at 37° C. for 24 hours.
Next, the hair papilla cells were confirmed to be subconfluent, and the basal medium in each well was then replaced by 200 μL of another basal medium (trade name: “Follicle Dermal Papilla Cell Basal Medium”, manufactured by Takara Bio Inc.) free of the growth factor described above. In this way, hair papilla cells to be used for determining whether or not addition of the above-described samples promote cell growth were prepared.
To the hair papilla cells prepared as described above, amino acids, combinations of amino acids, peptides and collagen peptide mixtures which are the samples described above were added at final concentrations shown in Tables 1 and 2, and the hair papilla cells were cultured in each well at 37° C. for 72 hours. Here, to one of the wells containing the hair papilla cells prepared as described above, 20 μL, of purified water was added, and as with other hair papilla cells, culturing was performed at 37° C. for 72 hours to prepare a control test sample (control). Thereafter, for each of the hair papilla cells in the wells containing purified water or the samples, the number of living cells (living cell number) was counted by a neutral red method. Here, the “neutral red method” is a method in which neutral red is added at a final concentration of 150 μg/mL into a well where cells are cultured, the cells are cultured for 20 minutes, and washed with PBS (phosphate buffer physiological saline), 200 μL of a 50 mass % ethanol solution containing 1 mass % acetic acid is added into the well as an extraction liquid, the mixture is stirred, and the absorbance of the well containing the neutral red is measured at a wavelength of 540 nm to measure the number of living cells in the well.
The number of living cells of hair papilla cells in the well containing the sample with respect to the number of living cells of hair pallia cells in the well containing purified water (control test sample) was determined as a cell growth rate (%) to evaluate the hair papilla cell growth promoting action in the sample. Further, the cell growth rate (%) was subjected to statistical processing to evaluate significance of the hair papilla cell growth promoting action in the sample. […] Thereafter, the Student's t-test (t-test) was conducted to evaluate significance. […] In Tables 1 and 2, samples with “++” were determined to have a significance in the hair papilla cell growth promoting action. In samples with “+”, the cell growth rate (%) exceeded 100.

hairless mice = assay: Test for confirming hair development effect and hair growth effect using hairless mouse (visual amount of head hair); assay type: in vivo
Description: Thirty 8-week-old male and female hairless mice were provided by purchase from Hoshino Laboratory Animals, Inc. The hairless mice were divided into five groups each consisting of six mice with no regard to sex. Specifically, the plurality of groups consist of a normal group given a normal feed (trade name: “Labo MR Stock”, manufactured by Nosan Corporation), a control group given magnesium-deficient specialty feed (trade name: “HR-AD Feed”, manufactured by Nosan Corporation), a first group given a mixed feed obtained by adding Pro-Hyp at a content of 0.3 mass % to the magnesium-deficient specialty feed, a second group given a mixed feed obtained by adding the collagen peptide mixture A at a content of 5 mass % to the magnesium-deficient specialty feed, and a third group given a mixed feed obtained by adding a collagen peptide mixture C of the later-described composition at a content of 2.5 mass % to the magnesium-deficient specialty feed.
The heads of the hairless mice in the above-described groups were observed immediately after they were reared for 3 weeks to 11 weeks of age under the following conditions: the temperature was 23±2° C., the relative humidity was 55±10%, the lighting cycle was 12 hours, the light period started at 7:00 and ended at 19:00, and the mice were allowed to freely eat. […] At the time of obtaining the hairless mice, their heads had no hair.
Further, a 2-week-old hairless mouse before starting to lose its hair was obtained from Hoshino Laboratory Animals, Inc., and relative to the amount of head hair of the hairless mouse which is defined as 10, the amount of head hair of each of the 11-week-old hairless mice in each group was visually measured. […] Each of the values in the table represents an average of the amounts of head hair of the six hairless mice in each group.

[2] = final concentration 0.05 mM, Table 4 (control test)
[3] = final concentration 0.5 mM, Table 4 (control test)
[4] = final concentration 5 mM, Table 4 (control test)
[5] = final concentration 0.05 mM, Table 1
[6] = final concentration 0.5 mM, Table 1
[7] = final concentration 5 mM, Table 1

Compound | Hair papilla cell growth promoting action (in words) [1] | Growth rate control = 100 ([1]; final concentration 0.05 mM) [%] | Assessment [1, 2] | Growth rate control = 100 ([1]; final concentration 0.5 mM) [%] | Assessment [1, 3] | Growth rate control = 100 ([1]; final concentration 5 mM) [%] | Assessment [1, 4] | Assessment [1, 5] | Assessment [1, 6] | Assessment [1, 7] | Score (amount of head hair, 2-week-old hairless mouse = 10) (hairless mice; First group: 0.3 mass % in magnesium-deficient specialty feed, 3 weeks, 11-week-old hairless mice, average of six) | Effectiveness as hair growing agent (in words) (hairless mice; conclusion from Table 3) | Hair development in the hair of head (FIG. 2 vs FIG. 1) (hairless mice; mixed feed with 0.3 mass % Pro-Hyp, 11-week-old hairless mice, compared with control group)
C[C@H](N)C(=O)O [Ala, alanine, reference compound] | poor hair papilla cell growth promoting action | 94 ± 1 | − | 100 ± 8 | − | 95 ± 1 | − |  |  |  |  |  | 
N=C(N)NCCC[C@H](N)C(=O)O [Arg, arginine, reference compound] | poor hair papilla cell growth promoting action | 93 ± 6 | − | 98 ± 3 | − | 101 ± 2 | − |  |  |  |  |  | 
NCC(=O)O.O=C(O)[C@@H]1CCCN1 [GP, glycine-proline] | had a hair papilla cell growth promoting action | 105 ± 4 |  | 109 ± 2 |  | 114 ± 2 |  | + (In samples with “+”, the cell growth rate (%) exceeded 100) | ++ | ++ |  |  | 
NC(=O)CC[C@H](N)C(=O)O [Gln, glutamine, reference compound] | poor hair papilla cell growth promoting action | 92 ± 2 | − | 94 ± 5 | − | 100 ± 4 | − |  |  |  |  |  | 
O=C(O)[C@@H]1C[C@@H](O)CN1 [O, hydroxyproline] | had a hair papilla cell growth promoting action | 114 ± 1 |  | 114 ± 3 |  | 110 ± 5 |  | ++ | ++ | ++ |  |  | 
NCC(=O)O.O=C(O)[C@@H]1CCCN1 [PG, proline-glycine] | had a hair papilla cell growth promoting action | 120 ± 5 |  | 120 ± 1 |  | 120 ± 5 |  | ++ | ++ | ++ |  |  | 
O=C(O)[C@@H]1CCCN1 [Pro, proline, reference compound] | poor hair papilla cell growth promoting action | 91 ± 4 | − | 93 ± 5 | − | 96 ± 1 | − |  |  |  |  |  | 
alanine-hydroxyproline-glycine [AOG] | had a hair papilla cell growth promoting action | 127 ± 5 |  | 126 ± 2 |  | 119 ± 2 |  | ++ | ++ | ++ |  |  | 
glutamic acid-hydroxyproline [EO] | had a hair papilla cell growth promoting action | 102 ± 6 |  | 109 ± 4 |  |  |  | + (In samples with “+”, the cell growth rate (%) exceeded 100) | + (In samples with “+”, the cell growth rate (%) exceeded 100) |  |  |  | 
glutamic acid-hydroxyproline-glycine [EOG] | had a hair papilla cell growth promoting action | 126 ± 10 |  | 131 ± 1 |  | 121 ± 8 |  | ++ | ++ | ++ |  |  | 
glycine-proline-hydroxyproline [GPO] | had a hair papilla cell growth promoting action | 126 ± 3 |  | 125 ± 4 |  | 120 ± 4 |  | ++ | ++ | ++ |  |  | 
leucine-hydroxyproline [LO] | had a hair papilla cell growth promoting action | 104 ± 6 |  | 105 ± 2 |  | 104 ± 5 |  | + (In samples with “+”, the cell growth rate (%) exceeded 100) | + (In samples with “+”, the cell growth rate (%) exceeded 100) | + (In samples with “+”, the cell growth rate (%) exceeded 100) |  |  | 
phenylalanine-hydroxyproline [FO] | had a hair papilla cell growth promoting action | 104 ± 4 |  | 106 ± 2 |  | 104 ± 1 |  | + (In samples with “+”, the cell growth rate (%) exceeded 100) | + (In samples with “+”, the cell growth rate (%) exceeded 100) | ++ |  |  | 
proline-alanine [PA] | had a hair papilla cell growth promoting action | 105 ± 2 |  | 111 ± 1 |  | 107 ± 5 |  | + (In samples with “+”, the cell growth rate (%) exceeded 100) | + (In samples with “+”, the cell growth rate (%) exceeded 100) | + (In samples with “+”, the cell growth rate (%) exceeded 100) |  |  | 
proline-alanine-glycine [PAG] | had a hair papilla cell growth promoting action | 110 ± 4 |  | 113 ± 1 |  | 115 ± 4 |  | + (In samples with “+”, the cell growth rate (%) exceeded 100) | ++ | ++ |  |  | 
proline-hydroxyproline [PO] | had a hair papilla cell growth promoting action | 126 ± 8 |  | 127 ± 3 |  | 129 ± 6 |  | ++ | ++ | ++ | 8 | effective as hair growing agents | hair development occurred in the hair of head
proline-proline [PP] | had a hair papilla cell growth promoting action | 116 ± 3 |  | 113 ± 6 |  | 109 ± 2 |  | ++ | ++ | ++ |  |  | 
serine-hydroxyproline-glycine [SOG] | had a hair papilla cell growth promoting action | 113 ± 10 |  | 116 ± 3 |  | 109 ± 2 |  | + (In samples with “+”, the cell growth rate (%) exceeded 100) | ++ | + (In samples with “+”, the cell growth rate (%) exceeded 100) |  |  | 
